Experimental findings from PubChem BioAssay (NCI) are described below.

Molecules are shown by their SMILES.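 Following 48 hours of exposure in 96-well plates, responses at five concentrations were used to interpolate endpoints linearly. Abbreviation: GI50, concentration required for 50% inhibition of growth. TGI: concentration producing complete growth inhibition.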 Where only a bound is given, the exact number is not on record here.

What all share (assay): NCI anticancer screen, dose series, 48 h
In test [1] the test system is NCI-H23 lung.
Test [2] concerns OVCAR-4 ovarian.
Test [3] concerns CCRF-CEM leukemia.
Test [4] concerns A498 renal.
Test [5] has as its system IGROV1 ovarian.
Test [6] deals with HCT-116 colon.
Test [7] relates to HOP-92 NSCLC.
Test [8] relates to MOLT-4 leukemia.
The test system of test [9] is MALME-3M melanoma.
Test [10] deals with CAKI-1 renal.

On to `CC([C@H]1CCC2C3CCC4CC5(CC[C@]4(C)C3CC[C@@]21C)c1ccccc1C(=O)N5C)N(C)C` (some centres undefined), for which the TGI in test [1], in test [2], in test [3], in test [4], in [5] and in test [6] was greater than 100 µM each time. Besides, the TGI in [7] is greater than 100 µM; in test [8] it was 91.7 µM; in [9], 42.5 µM; in test [10], greater than 100 µM.

Take `NNC(=O)CCC(=O)Nc1ccc(Cl)cc1Cl`: the TGI in test [1], in [2], in [3], in [4], in [5] and in test [6] was greater than 100 µM each time. The TGI in test [7], in [8], in [9] and in [10] was greater than 100 µM each time.

For `CC(=O)NC1C(OCc2ccccc2)OC(COC(=O)CCCCCNc2ccc([N+](=O)[O-])c3[nH]c4ccc(O)cc4c(=O)c23)C(O)C1OC(C)C(=O)N[C@@H](C)C(=O)N[C@H](CCC(=O)OCc1ccccc1)C(N)=O` (some centres undefined), the TGI in test [1] is 3.14 µM; in test [2], 15.9 µM; in [3] it was greater than 27.2 µM; in test [4], 7.29 µM; in [5], 34 µM; in test [6] it was 1.34 µM. Also, the TGI in [7] was found to be 3.61 µM; in test [8], 5.56 µM; in test [9], 2.87 µM; in test [10], 4.21 µM.

As to `CCC1CCCCN1C(=S)N/N=C(\C)c1ccccn1` (centres undefined), the GI50 in test [1] is 0.0365 µM; in test [2], 0.0364 µM; in test [3], 0.0414 µM; in test [4], 0.136 µM; in test [5], less than 0.0304 µM; in [7], 0.175 µM. The GI50 in test [8] is 0.0982 µM; in test [9], less than 0.0325 µM; in [10], 0.0466 µM. In addition, the TGI in [1] was 5.01 µM; in test [2], 3.57 µM; in [3] it was greater than 100 µM; in [4], 1.93 µM; in test [5], 2.44 µM; in [6], 3.49 µM. The TGI in [7] was 1.85 µM; in [8], greater than 20.7 µM; in [9], 2.03 µM; in [10], 1.83 µM.

For `O=C1/C(=C/c2ccccc2)CN(CCC(=O)N2C/C(=C\c3ccccc3)C(=O)/C(=C/c3ccccc3)C2)C/C1=C\c1ccccc1`, the GI50 was 11.5 µM in [1]; 18.8 µM in test [2]; 0.687 µM in test [3]; 1.5 µM in test [4]; 5.19 µM in [5]; 0.346 µM in test [6]. Besides, the GI50 in test [7] is 10.4 µM; in test [8] it was 2.6 µM; in [9], 22.3 µM; in test [10], 8.5 µM. Moreover, the TGI in test [1] was 33.5 µM; in test [2], 83.1 µM; in test [3], greater than 100 µM; in [4], 17.8 µM; in test [5] it was 21.9 µM; in test [6], 4.17 µM. In addition, the TGI in test [7] is 29.7 µM; in test [8], greater than 100 µM; in [9], 64.3 µM; in [10] it was 41.1 µM.

Turning to `COc1ccc(-c2nc(N)c3ncn(C4OC(CO)C(O)C4O)c3n2)cc1` (centres undefined), the TGI in test [1], in [2], in test [3], in test [4], in test [5] and in [6] was greater than 100 µM each time. Besides, the TGI in [7], in [8], in test [9] and in test [10] was greater than 100 µM in each case.

Take `CCC(c1ccc(OC)cc1)C(CC)c1ccc(O)c(CN2CCCC2)c1` (centres undefined): the GI50 in [1] is 3.66 µM; in test [2] it was 2.54 µM; in test [3] it was 3.56 µM; in test [4] it was 2.51 µM; in [5] it was 8.63 µM; in test [6] it was 3.44 µM. In addition, the GI50 is 1.57 µM in [7], 2.54 µM in test [8], 1.76 µM in test [9] and 6.1 µM in [10]. For the same molecule, the TGI in test [1] stood at 15.6 µM; in test [2], 15.2 µM; in test [3], 13.5 µM; in test [4], 11.1 µM; in test [5], 23.6 µM; in test [6] it was 12.5 µM. The TGI in test [7] is 3.58 µM; in test [8], 6.77 µM; in test [9] it was 3.95 µM; in [10] it was 20 µM.

`O=C1c2cccc3cc([N+](=O)[O-])cc(c23)C(=O)N1CCN1CCCC1`: the GI50 in test [1] is 0.466 µM; in [2], 1.48 µM; in test [3] it was 0.343 µM; in [4] it was 0.319 µM; in test [5], 0.276 µM; in [6], 0.441 µM. The GI50 in test [7] was 0.355 µM; in [8], 0.237 µM; in test [9], 0.18 µM; in test [10], 0.216 µM. The TGI in test [1] was 4.3 µM; in test [2] it was 11.7 µM; in [3], 7.02 µM; in test [4], 1.65 µM; in [5], 5.16 µM; in test [6], greater than 100 µM. Also, the TGI in test [7] was 2.79 µM; in [8], greater than 100 µM; in test [9], 1.07 µM; in [10], 0.892 µM.

In the case of `COc1cccc(-c2nc(-c3ccc(NC(=O)c4ccccc4)cc3)[nH]c2-c2ccnc(Br)c2)c1`, the GI50 is 2.82 µM in test [1]; 4.9 µM in test [2]; 3.15 µM in test [3]; 1.74 µM in test [4]; 6.96 µM in [5]; 3.29 µM in test [6]. Further, the GI50 is 6.26 µM in test [7], 2.7 µM in test [8], 2.86 µM in test [9] and 2.21 µM in test [10]. The TGI was greater than 100 µM in test [1]; greater than 100 µM in test [2]; greater than 100 µM in test [3]; 6.5 µM in [4]; greater than 100 µM in test [5]; greater than 100 µM in [6]. The TGI was greater than 100 µM in test [7], greater than 100 µM in [8], greater than 100 µM in test [9] and 8.02 µM in [10].

Turning to `NC1=NC(c2ccccc2)CC(c2cc(Cl)cc(Br)c2O)=N1` (centres undefined), the TGI in [1] was found to be 26 µM; in test [2], 41.9 µM; in [3], 35.6 µM; in [4] it was 35.7 µM; in test [5] it was 30.8 µM; in test [6], 25.8 µM. Besides, the TGI worked out at 38.2 µM in test [7], 11.6 µM in [8], 15.9 µM in test [9] and 26.8 µM in [10].

Consider `COc1ccccc1N1CCN(C(=O)c2ccc(NS(=O)(=O)c3cccc4cccnc34)cc2)CC1`, for which the GI50 was greater than 67.2 µM in test [1]; greater than 100 µM in [2]; greater than 100 µM in test [3]; greater than 47.6 µM in test [4]; greater than 78.4 µM in test [5]; greater than 94.2 µM in test [6]. The GI50 in test [7], in [8], in test [9] and in test [10] was greater than 100 µM throughout. The TGI in [1], in [2], in test [3], in test [4], in [5] and in test [6] was greater than 100 µM in each case. The TGI in test [7], in test [8], in test [9] and in test [10] was greater than 100 µM throughout.

For the molecule `CC(C)(C)N1CC(OC(N)=O)C1`, the GI50 in [1], in [2], in test [3], in test [4], in test [5] and in test [6] was greater than 100 µM in each case. The GI50 in test [7], in [8], in [9] and in test [10] was greater than 100 µM each time. For the same molecule, the TGI in test [1], in test [2], in test [3], in test [4], in test [5] and in test [6] was greater than 100 µM throughout. Also, the TGI in test [7], in test [8], in test [9] and in [10] was greater than 100 µM each time.

As to `CCn1cc(C(=O)N/N=C/c2cccc(F)c2)c(=O)c2cc(F)c(N3CCNC(C)C3)c(F)c21` (centres undefined), the GI50 in test [1] was 1.83 µM; in test [2] it was 2.02 µM; in test [3] it was 1.55 µM; in [4], 1.28 µM; in test [5] it was 1.58 µM; in test [6], 1.75 µM. The GI50 in test [7] was 1.12 µM; in [8], 1.75 µM; in test [9] it was 1.72 µM; in [10] it was 1.73 µM. Further, the TGI in test [1] is 3.45 µM; in test [2], 4.22 µM; in test [3] it was 3.39 µM; in test [4], 6.36 µM; in [5] it was 3.16 µM; in [6], 3.47 µM. Moreover, the TGI was 2.42 µM in [7], 3.4 µM in test [8], 3.23 µM in test [9] and 3.15 µM in test [10].

For `O=C(Nc1ccc(Cl)cc1)c1cc2cc(F)ccc2cc1O`, the GI50 in test [1] is 0.929 µM; in test [2] it was 2.56 µM; in test [3], 3.35 µM; in test [4] it was 0.553 µM; in [5], 2.28 µM; in test [6], 0.963 µM. Moreover, the GI50 in test [7] is 0.288 µM; in test [8], 3.24 µM; in [9], 0.613 µM; in test [10], 0.838 µM. Besides, the TGI in test [1] is 7.33 µM; in test [2], 8.99 µM; in test [3] it was 15.6 µM; in [4], 2.74 µM; in test [5], greater than 100 µM; in test [6] it was 6.66 µM. Moreover, the TGI worked out at 0.809 µM in test [7], 16.4 µM in test [8], 4.11 µM in test [9] and 8.96 µM in [10].

For the molecule `O=S1c2ccccc2N=C(c2ccc(Cl)cc2)CC1c1cccs1` (centres undefined), the TGI in test [1] was 85.3 µM; in test [2] it was 57.2 µM; in test [3], 86.5 µM; in test [4], greater than 100 µM; in test [5], 35.7 µM; in [6], 24.3 µM. Besides, the TGI in test [7] is 72.5 µM; in test [8], 98.7 µM; in test [9] it was greater than 100 µM; in test [10], greater than 100 µM.

With `CNC(=O)c1cncc(/C=C/c2c(C)cccc2C)c1`, the GI50 in test [1] was greater than 25 µM; in test [2], greater than 25 µM; in test [3] it was greater than 25 µM; in test [4], 8.95 µM; in test [5], 12.9 µM; in test [6], greater than 25 µM. The GI50 in [7] is 3.34 µM; in [8], greater than 25 µM; in [9], 16 µM; in test [10], 10.2 µM. For the same molecule, the TGI in test [1], in [2], in test [3], in test [4], in [5] and in [6] was greater than 25 µM throughout. Besides, the TGI is 22.9 µM in [7], greater than 25 µM in [8], greater than 25 µM in test [9] and greater than 25 µM in test [10].
